Data taken from ChEMBL document CHEMBL5506021, “Artificial Intelligence-Assisted Optimization of Antipigmentation Tyrosinase Inhibitors: De Novo Molecular Generation Based on a Low Activity Lead Compound” (J Med Chem, 2024).
Calls of active or inactive are those of the source. The calls are words filed in the database; no cut-off is given here.

Columns and labels:
Mushroom tyrosinase [1] = molecular target: T1, Mushroom tyrosinase (Agaricus bisporus, UniProt O42713+Q00024+C7FF04+C7FF05)
Description: Inhibition of mushroom tyrosinase monophenolase activity using L-tyrosine as substrate preincubated for 10 mins followed by substrate addition and measured after 20 mins by absorbance based assay

Mushroom tyrosinase [2] = molecular target: T1, Mushroom tyrosinase; remark: listed apart in the source
Description: Inhibition of mushroom tyrosinase diphenolase activity using L-dopamine as substrate preincubated for 10 mins followed by substrate addition and measured after 20 mins by absorbance based assay

[3] = Metabolic stability in human liver microsomes assessed as half-life at 1.5 uM preincubated for 5 mins followed by NADPH addition and measured after 10 mins by LC/MS analysis; format: ADME, Microsome; settings: time 15 min
Tyrosinase = molecular target: T2, Tyrosinase (Homo sapiens, UniProt P14679); assay: Binding affinity to tyrosinase (unknown origin) assessed as dissociation constant by SPR analysis
T2 sequence (P14679 whole entry): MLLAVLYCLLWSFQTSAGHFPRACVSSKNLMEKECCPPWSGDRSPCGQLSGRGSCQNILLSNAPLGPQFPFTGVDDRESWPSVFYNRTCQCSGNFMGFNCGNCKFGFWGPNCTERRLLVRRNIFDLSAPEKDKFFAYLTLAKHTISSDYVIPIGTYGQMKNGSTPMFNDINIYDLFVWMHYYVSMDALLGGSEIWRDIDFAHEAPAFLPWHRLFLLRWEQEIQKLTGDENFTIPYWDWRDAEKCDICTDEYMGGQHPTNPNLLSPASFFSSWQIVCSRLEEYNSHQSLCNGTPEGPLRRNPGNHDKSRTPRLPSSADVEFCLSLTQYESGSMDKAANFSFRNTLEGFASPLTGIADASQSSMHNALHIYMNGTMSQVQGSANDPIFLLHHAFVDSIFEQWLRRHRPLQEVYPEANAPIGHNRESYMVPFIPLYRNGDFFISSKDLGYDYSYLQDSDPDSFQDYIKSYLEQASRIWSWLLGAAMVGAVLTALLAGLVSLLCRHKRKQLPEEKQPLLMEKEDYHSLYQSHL

[4] = Metabolic stability in human plasma assessed as compound remaining at 100 uM incubated for 120 mins by LC/MS analysis; format: ADME, cell-free; settings: read-out: Stability
[5] = Metabolic stability in human liver microsomes assessed as compound remaining at 1.5 uM incubated for 45 mins by LC/MS analysis; format: ADME, Microsome; settings: read-out: Stability
[6] = Metabolic stability in human liver microsomes assessed as hepatic extraction ratio at 1.5 uM preincubated for 5 mins followed by NADPH addition and measured after 10 mins by LC/MS analysis; format: ADME, Microsome; settings: time 15 min, read-out: ERH
[7] = zebrafish, in vivo, 45 h
Description: Toxicity in wildtype AB zebrafish assessed as minimum toxic concentration measured after 45 hrs

[8] = Metabolic stability in human plasma assessed as half-life at 100 uM incubated for 120 mins by LC/MS analysis; format: ADME, cell-free
[9] = Metabolic stability in human liver microsomes assessed as intrinsic clearance at 1.5 uM preincubated for 5 mins followed by NADPH addition and measured after 10 mins by LC/MS analysis; format: ADME, Microsome; settings: time 15 min, read-out: CLH
Danio rerio [10] = organism: Danio rerio; assay: Anti-pigmentation activity in wildtype AB zebrafish assessed as melanin looseness in head at 5 uM incubated for 45 hrs by anatomical microscopic analysis; format: functional, organism-based
[11] = Toxicity in wildtype AB zebrafish assessed as effect on phenotype at 1 to 5 microM incubated for 45 hrs by anatomic microscopic analysis; parameters: species or system Danio rerio; settings: in vivo, dose 1-5 µM
[12] = Toxicity in wildtype AB zebrafish assessed as effect on growth at 1 to 5 microM incubated for 45 hrs by anatomic microscopic analysis; parameters: species or system Danio rerio; settings: in vivo, dose 1-5 µM
Danio rerio [13] = organism: Danio rerio; assay: Anti-pigmentation activity in wildtype AB zebrafish assessed as melanin reduction in head at 5 uM incubated for 45 hrs by anatomical microscopic analysis; format: functional, organism-based
Danio rerio [14] = organism: Danio rerio; assay: Anti-pigmentation activity in wildtype AB zebrafish assessed as depigmentation at 5 uM incubated for 45 hrs by anatomical microscopic analysis; format: functional
[15] = Toxicity in wildtype AB zebrafish assessed as effect on growth at 10 to 50 microM incubated for 45 hrs by anatomic microscopic analysis; parameters: species or system Danio rerio; settings: in vivo, dose 10-50 µM
[16] = Toxicity in wildtype AB zebrafish assessed as effect on phenotype at 10 to 50 microM incubated for 45 hrs by anatomic microscopic analysis; parameters: species or system Danio rerio; settings: in vivo, dose 10-50 µM

Row | SMILES | IC50 (Mushroom tyrosinase [1]) | IC50 (Mushroom tyrosinase [2]) | also measured
1 | Cc1ccc(NC(=O)CCN2CCCN(C/C=C/c3ccccc3)CC2)cc1 | 338.4 µM | 536.05 µM | –
2 | Cc1ccccc1NC(=O)CN1CCCN(C/C=C/c2ccccc2)CC1 | > 800 µM | > 800 µM | –
3 | Cc1cc(C)c(NC(=O)CCN2CCCN(C/C=C/c3ccccc3)CC2)c(C)c1 | 465.1 µM | > 800 µM | –
4 | Cc1ccc(C)c(NC(=O)CCC(=O)N2CCCN(C/C=C/c3ccccc3)CC2)c1 | 393.05 µM | > 800 µM | –
5 | Cc1ccc(/C=C/CN2CCN(C(=O)CCC(=O)Nc3ccccc3O)CC2)cc1 | 11.49 µM | 31.01 µM | half-life at 1.5 µM [3]: 24.6 min; Kd (Tyrosinase): 198 µM; remaining at 2 h, 100 µM [4]: 94.6%; remaining at 0.75 h, 1.5 µM [5]: 28.1%; hepatic extraction ratio at 10 min, 1.5 µM [6]: 0.759; MTC [7]: 5 µM; half-life at 100 µM [8]: > 120 min; CLint scaled at 1.5 µM [9]: 65.2 mL/min/kg
6 | Cc1ccc(NC(=O)CCC(=O)Nc2cnn(C/C=C/c3ccccc3)c2)c(C)c1 | > 800 µM | > 800 µM | –
7 | Cc1cccc(C)c1NC(=O)CN1CCN(C/C=C/c2ccccc2)CC1 | 88.01 µM | 244.6 µM | –
8 | Cc1ccc(C)c(NC(=O)CC(=O)N2CCCN(C/C=C/c3ccccc3)CC2)c1 | 744.95 µM | > 800 µM | –
9 | Cc1ccc(/C=C/CN2CCN(C(=O)CCC(=O)Nc3cccc(O)c3)CC2)cc1 | 217.17 µM | > 800 µM | –
10 | Cc1ccc(/C=C/CN2CCN(C(=O)CCC(=O)Nc3ccc(O)cc3)CC2)cc1 | 40.34 µM | 131.77 µM | –
11 | Cc1ccc(/C=C/CN2CCN(C(=O)CCC(=O)Nc3ccccc3C)CC2)cc1 | 173 µM | 204.3 µM | –
12 | Cc1ccc(/C=C/CN2CCN(C(=O)CCCC(=O)Nc3ccccn3)CC2)cc1 | 192.93 µM | 329.55 µM | –

Further lines, with some results ahead:

Row | IC50 (Mushroom tyrosinase [1]) | IC50 (Mushroom tyrosinase [2]) | SMILES | also measured
13 | 234.2 µM | 555.4 µM | Cc1ccc(C)c(NC(=O)CCN2CCCN(C/C=C/c3ccccc3)CC2)c1 | –
14 | 248.7 µM | > 800 µM | Cc1cccc(C)c1NC(=O)CCCN1CCCN(C/C=C/c2ccccc2)CC1 | –
15 | > 800 µM | > 800 µM | Cc1ccc(NC(=O)CCN2CCCN(C/C=C/c3ccccc3)CC2)cc1C | –
16 | > 800 µM | > 800 µM | Cc1ccc(NC(=O)CN2CCCN(C/C=C/c3ccccc3)CC2)c(C)c1 | –
17 | 639.85 µM | > 800 µM | Cc1ccc(F)cc1NC(=O)CCN1CCCN(C/C=C/c2ccccc2)CC1 | –
18 | > 800 µM | > 800 µM | Cc1cc(Cl)ccc1NC(=O)CN1CCCN(C/C=C/c2ccccc2)CC1 | –
19 | 681.3 µM | > 800 µM | Cc1ccc(NC(=O)CCC(=O)N2CCCN(C/C=C/c3ccccc3)CC2)c(C)c1 | –
20 | 255.4 µM | 465.1 µM | Cc1ccc(NC(=O)CCN2CCCN(C/C=C/c3ccccc3)CC2)c(C)c1 | –
21 | 652.9 µM | > 800 µM | Cc1ccc(NC(=O)CCCN2CCN(C/C=C/c3ccccc3)CC2)c(C)c1 | Activity (Danio rerio [10]): Active; Activity [11]: Non-Toxic; Activity [12]: Non-Toxic; Activity (Danio rerio [13]): Active; Activity (Danio rerio [14]): 9.98%; MTC [7]: 50 µM; Activity [15]: Toxic; Activity [16]: Toxic
22 | > 800 µM | > 800 µM | Cc1ccc(C)c(NC(=O)CN2CCCN(C/C=C/c3ccccc3)CC2)c1 | –
23 | 732.35 µM | > 800 µM | Cc1ccc(NC(=O)CC(=O)N2CCCN(C/C=C/c3ccccc3)CC2)c(C)c1 | –
